Assay results: PMC13126677 (Journal of Medicinal Chemistry, 2026)
Read-outs that look alike come from different tables or passages of the source.

How the values were obtained:
[1] = test system: E. romani venom; conditions: 30 mg/kg single oral dosing; ref not given; cited from earlier work
[2] = test system: SVMP activity of Echis romani venom; conditions: read-out: ERO EC50; E. romani venom; ref not given; cited from earlier work
[3] = physchem; conditions: aqueous medium at pH 7.4, pH 7.4, aqueous buffer
Method: (§1) The DMPK properties data described in the manuscript were measured via a high-throughput platform by AstraZeneca (United Kingdom).

[4] = physchem; conditions: organic solvent / aqueous solvent at pH 7.4, pH 7.4
Method: as §1

[5] = in vitro; conditions: rat, hepatocytes
Method: as §1

[6] = test system: E. romani venom
Method: Room conditions were set at 20–24 °C and 45–65% humidity, 12/12 h light cycles. Mice were allowed ad libitum access to Picolab 5R53 food (Lab Diet, USA) and reverse osmosis water and housed with nesting material and environmental enrichment materials.
Mice weighed 22–28 g at the start of study. Five milligram or kilogram morphine was administered subcutaneously as an analgesic 15 min prior to venom administration. […] No criteria for including or excluding animals was applied, and all data points were included in analyses. Animals were monitored for humane end points (loss of righting reflex, seizure, external hemorrhage) for 8 h to encompass the drug exposure time frame, and any animals showing such signs were immediately euthanized by rising concentrations of carbon dioxide. All observations were performed by mixed gender experimenters who were blinded to the drug group allocation. Time of death, number of deaths and number of survivors were recorded, where deaths and times of death represent implementation of humane end point-dictated euthanasia. Kaplan–Meier survival plots were generated using GraphPad Prism 9.0 (GraphPad Software, San Diego, USA).

[7] = test system: E. romani venom in human whole blood; conditions: venom 60 ng plus drug 5 μM; mean
Method: We measured the coagulation profile of whole human blood using thromboelastography, and compared with venom stimulated, and venom and drug stimulated, clotting profiles. […] Blood samples were collected in ACD-A blood tubes. Using a ROTEM delta (Werfen) a final volume of 300 μL blood per reaction was pipetted into prewarmed cups (37 °C), with four channels per run. Whole blood was warmed for 5 min at 37 °C, during which time 12 μL of E. romani venom (5 ng/nL concentration, 60 ng dose), 15 μL of DMSO vehicle or test compounds (5 μM final concentration, 0.2% DMSO), and 20 μL of Startem reagent (CaCl2, Werfen) was prepared. The maximum incubation time of venom and inhibitors was 2 min, before 253 μL of whole blood were added and mixed before reading on the ROTEM delta. The commonly used parameters of clotting time and maximum clot firmness (MCF) were reported, from a minimum of three independent measurements per experimental group.

[8] = test system: SVMP activity of Crotalus atrox venom; conditions: read-out: Inhibition of SVMP enzymatic activity EC50 CAT; C. atrox venom; mean of n ≥ 3, range in brackets
Method: (§2) Throughout our medicinal chemistry campaign, compounds were evaluated for their ability to inhibit enzymatic SVMP toxin activity in vitro using a previously described fluorescent-based substrate cleavage assay against five medically important viper venoms, namely Echis romani (Roman’s carpet viper, West Africa), Crotalus atrox (Western diamondback rattlesnake, North America), Calloselasma rhodostoma (Malayan pit viper, South East Asia), Bothrops jararaca (jararaca, South America) and Bitis arietans (puff adder, Africa).
(§3) Compounds of interest were stamped onto 384-well plates at a volume of 0.91 μL at a concentration of 1 mM in 100% DMSO (D2650, Sigma-Aldrich). Positive and negative control wells were stamped with 0.91 μL of 100% DMSO. To the test wells and the venom-only positive control wells, 15 μL of venom diluted to 0.066 μg/mL in PBS was added, giving a final amount of 1 μg/well. In the no venom negative control wells, 15 μL of PBS was added. The plates were then sealed, span briefly in a Platefuge (C2000, Benchmark Scientific) and incubated at 37 °C for 25 min to allow venom-inhibitor interaction. […] Dose response plates were conducted identically and the % inhibition values at each dose were used to draw EC50 curves to estimate the EC50 value of each compound tested. All SVMP experiments were repeated independently a minimum of three times.

[9] = in vitro; conditions: human, microsomes
Method: as §1

[10] = in vivo; conditions: male, CD1, mouse, plasma, po, 20 mg/kg
Method: (§4) The in vivo PK study was performed by ChemPartner (Shanghai, China). […] Mice had access to food and water throughout the pre- and postdose sampling period. […] Approximately 110 μL whole blood/time point (sampling at 0.083, 0.25, 0.5, 1, 2, 4, 8, and 24 h) was collected via serial bleeding in K2EDTA tube via facial vein. The blood sample was kept on ice and centrifuged (2,000 × g, 4 °C, 5 min) within 15 min postsampling. The plasma drug concentrations were determined by LC-MS/MS (ESI, Triple Quad 5500 System) on positive ion mode and using dexamethasone as internal standard. Liquid chromatography (LC) was performed using a 2.5 μm Xbridge BEH-C18 column (2.1 mm × 50 mm) at 60 °C with a rate of 0.6 mL/min. The following mobile phases were used; A: Water (+0.025% Formic acid and 1.0 mM ammonium acetate), B: Methanol (+0.025% Formic acid and 1.0 mM ammonium acetate).

[11] = test system: SVMP activity of Bothrops jararaca venom; conditions: read-out: Inhibition of SVMP enzymatic activity EC50 BJA; B. jararaca venom; mean of n ≥ 3, range in brackets
Method: as §2, §3

[12] = test system: SVMP activity of Calloselasma rhodostoma venom; conditions: read-out: Inhibition of SVMP enzymatic activity EC50 CRH; C. rhodostoma venom; mean of n ≥ 3, range in brackets
Method: as §2, §3

[13] = test system: E. romani venom; conditions: venom 10 μg/egg, drug 1 μg/egg topical, 6 h; in words
Method: Fertile hens eggs were supplied on day 1 post fertilization from UK supplier MedEggs Ltd. Eggs were immediately placed horizontally to incubate at 37 °C until day 5 of development. Candling was conducted to mark the position of the embryo to guide windowing. Any infertile eggs were removed at this stage. To access the embryos, all fertile eggs were then windowed under laminar flow. In brief, 6–8 mL of albumin was removed using a 23G needle. The area marking the position of the embryo was then covered with medical tape, and a dish of shell removed using sharp dissection scissors. The exposed embryo was then covered using parafilm and the egg returned to the incubator overnight. Surviving embryos were then randomly allocated into groups of n = 5. […] Treatments were given in a total volume of 10 μL, administered directly onto (i.e., topically) the vitelline vein. Embryos were returned to the incubator immediately following dosing, and then observed at 1, 2, 4, and 6 h. Survival was monitored via the observation of a heartbeat. Venom pathology was captured using a Motic SMZ 171-TLED microscope system. In brief, at each observation time point (1, 2, 4, and 6 h post envenoming) images were captured using a Moticam X5 Wi-Fi camera. To track changes across the experimental time course, the imaging position was kept consistent at each time point for individual embryos.

[14] = test system: thrombin-antithrombin (TAT) complexes
Method: Blood samples were collected from mice via cardiac puncture immediately following euthanasia. Samples were centrifuged at 1400 × g for 10 min at 4 °C, and the plasma supernatant stored at −80 °C until use. Plasma TAT levels were determined using a sandwich ELISA provided as a commercial kit (Abcam, ab137994). Mouse plasma samples were diluted 1:150 using Diluent M and were run in duplicate alongside a standard curve. Each well received 50 μL diluted plasma and was incubated for 2 h at room temperature to allow for the reaction with the TAT complexes antibodies coated onto the plate. After five washes, 50 μL of biotinylated mouse TAT complexes antibodies were added to the plate and the reaction allowed to proceed for another 2 h. Following another five washes, 50 μL of a streptavidin-peroxidase conjugate were added to the plate and incubated for another 30 min. Next, 50 μL of a chromogenic substrate (3,3′,5,5′-tetramethylbenzidine) was added to the plate and the peroxidase-dependent reaction allowed to proceed until a clear blue color formed in the well. At this point 50 μL of stop solution was added and the absorbance read immediately at 450 and 570 nm. The 570 nm absorbance readings were subtracted from the 450 nm ones, and the levels of TAT complexes (ng/mL) extrapolated based on the standard curve.

[15] = test system: procoagulant activity of B. jararaca venom; conditions: read-out: Coagulation assay EC50 B. jararaca; 100 ng B. jararaca venom, citrated bovine plasma; mean of n ≥ 3, range in brackets
Method: (§5) This assay consists of preincubating venom (or venom vehicle control) at a species-specific dose with the compound of interest (or compound vehicle control), then adding citrated bovine plasma to the wells and activating the clotting cascade with calcium chloride. […] Compounds of interest were stamped onto 384-well plates at a volume of 0.5 μL and a concentration of 10 mM in 100% DMSO. Positive and negative control wells were stamped with 0.5 μL of 100% DMSO. To the test wells and the venom-only positive control wells, 10 μL of venom diluted to 1 μg/mL (E. romani) or 10 μg/mL (B. jararaca) in PBS was added, giving a final well amount of 10 ng (E. romani) or 100 ng (B. jararaca) per well. In the no venom negative control wells, 10 μL of PBS was added. The plates were then sealed, span briefly in a Platefuge and incubated at 37 °C for 25 min to allow venom-inhibitor interaction. While the plates were incubating, sufficient citrated bovine plasma (S0260, BioWest) to allow 20 μL/well was centrifuged at 3120 RCF for 5 min to remove any residual cellular debris and the supernatant was collected. The 384-well plates were removed from the incubator for 5 min to allow acclimation to room temperature, then 20 μL/well of 20 mM CaCl2 was added and immediately followed by the addition of 20 μL/well of centrifuged citrated bovine plasma, both via a Multidrop Combi reagent dispenser (5840330, Thermo Fisher Scientific). The plates were then read kinetically using an absorbance protocol on a CLARIOStar microplate reader at 595 nm for 60 min. […] Dose response plates were conducted identically and the % inhibition values at each dose were used to draw EC50 curves to estimate the EC50 value of each compound tested. All coagulation experiments were repeated independently a minimum of three times.

[16] = test system: E. romani P–I, P–II and P–III SVMPs; conditions: P–I, P–II, P–III SVMPs; drug 10 μM (P–I, P–II), 400 nM (P–III); gel
Method: (§6) Evaluation of SVMP toxin activity of human prothrombin and fibrinogen and inhibition by test compounds was performed by SDS-PAGE degradation gel electrophoresis using venom-purified toxins. P–I, P–II and P–III SVMPs were isolated using an adaptation of the method of Howes et al. Whole E. romani venom (15 mg) was initially separated using size exclusion chromatography (SEC) on a 120 mL column of Superdex 75 (Cytiva). The P–II SVMP (22 kDa) was pure and ready to use at this stage. P–I and P–III SVMP containing peaks were separately applied to a 1 mL high resolution hydrophobic interaction chromatography (HIC) column (SOURCE 15PHE, Cytiva). […] The P–I eluted as two peaks of proteins with identical molecular weight (21 kDa) which were combined back together. The P–III-containing fraction from SEC eluted from HIC as multiple peaks of P–III SVMP isoforms, well separated from the earlier eluting L-amino acid oxidase and high molecular weight C-type lectin-like proteins. The proteins in the PIII-containing peaks were pooled back together.
Degradation of human fibrinogen was measured in a similar manner. Human fibrinogen (Merck) was added at 5 μg/reaction and incubated with the different SVMP isoforms in the presence or absence of drugs. Drug concentrations used were 10 μM for P–I and P–II SVMP and 400 nM for P–III SVMP. The reactions consisted of 200 ng SVMP isoform and the appropriate concentration of drug, which were then incubated for 30 min at 37 °C in a water bath. Five micrograms of fibrinogen were then added and the samples incubated for another hour at 37 °C, before separation by SDS-PAGE as described above.

[17] = test system: SVMP activity of Bitis arietans venom; conditions: read-out: Inhibition of SVMP enzymatic activity EC50 BAR; B. arietans venom; mean of n ≥ 3, range in brackets
Method: as §2, §3

[18] = test system: human plasma protein
Method: as §1

[19] = test system: SVMP activity of five viper venoms (E. romani, C. atrox, C. rhodostoma, B. jararaca, B. arietans); conditions: read-out: broad-spectrum inhibition of SVMP activity EC50s; range over the five venoms
Method: as §2, §3

[20] = test system: SVMP activity of Echis romani venom; conditions: read-out: Inhibition of SVMP enzymatic activity EC50 ERO; E. romani venom; mean of n ≥ 3, range in brackets; listed as 23 (DC-174)
Method: as §2, §3

[21] = test system: E. romani P–I and P–III SVMPs; conditions: drug 2 μM, gel
Method: as §6
Prothrombin degradation was measured by incubating 2 μg of human prothrombin (Hematologic Technologies INC) in the presence or absence of drug and the P–I, P–II, and P–III SVMPs. […] Briefly, drug or DMSO and 200 ng of purified SVMP isoform were incubated for 30 min at 37 °C in a water bath, after which 2 μg of human prothrombin were added and the samples incubated for another hour at 37 °C. Drug concentrations used were 2 μM for P–I and P–III SVMPs. Samples were then processed for loading onto a 4–20% SDS-PAGE gel (Biorad) and were run under reducing conditions for 45 min at 180 V. The gels were stained with Coomassie Brilliant Blue R250 and degradation profiles were visualized and images captured using a GelDoc (Biorad).

[22] = test system: procoagulant activity of E. romani venom; conditions: read-out: Coagulation assay EC50 E. romani; 10 ng E. romani venom, citrated bovine plasma; mean of n ≥ 3, range in brackets
Method: as §5

[23] = mouse
Method: as §4

[24] = test system: mouse fibrinogen and prothrombin; conditions: in words
Method: Mouse plasma samples were diluted 1:50 (antifibrinogen blots) and 1:30 (antiprothrombin blots) and 5 μL was run on 4–20% SDS-PAGE gels (BioRad) at 180 V for 1 h. The separated proteins were then transferred onto nitrocellulose membranes using semidry transfer on a Trans-Blot Turbo (BioRad) using the following conditions: 1.3 A, 25 V, 7 min. Blots were then stained for 5 min with Revert 700 Total Protein Stain (LICORbio) following the manufacturer’s protocol and imaged on the 700 nm channel on an Odyssey Fc Imaging System to detect protein abundance and ensure equal loading. Membranes were then destained in 0.1 M NaOH, 30% methanol for no longer than 10 min, then blocked in 5% milk TBST for 1 h. The primary antibodies: antifibrinogen (ab34269, rabbit polyclonal, Abcam) and antiprothrombin (PA5-77976, rabbit polyclonal, Thermo Fisher) were diluted 1:1,500 and 1:1,000, respectively, in 5% milk TBST. The membranes were incubated with the appropriate primary antibody for 1.5 h at room temperature, followed by three 5 min washes in TBST. Blots were then incubated for 1 h at room temperature with an IRDye 800CW donkey anti-rabbit IgG secondary antibody (1:15000, LICORbio), followed by three 5 min washes in TBS. The blots were imaged on an Odyssey Fc Imaging System at both 700 and 800 nm.

O=S(=O)(O)CC(S)CS (stereo not shown) [DMPS, 2,3-dimercapto-1-propanesulfonic acid]
oral dosing murine survival at 8 h [1]: 40%
EC50 [2]: 1650 nM

COc1ccc(S(=O)(=O)N2CCN(S(=O)(=O)C3CC3)C[C@@H]2C(=O)NO)cc1 [compound 23, (R)-4-(Cyclopropylsulfonyl)-N-hydroxy-1-((4-methoxyphenyl)sulfonyl)piperazine-2-carboxamide]
solubility [3]: > 1000 µM
logD [4]: 0.2
hepatocyte CLint [5]: 13.3 µL/min/1e6 cells
survival times vs venom-only ([6]; 90 μg venom i.p., single 20 mg/kg oral dose, p = 0.01, in words): significantly prolonged survival times
mean survival time ([6]; two dose oral regimen 20 mg/kg, 8 h experiment): 420 min
time at which the mouse succumbed ([6]; two dose oral regimen 20 mg/kg, one of five mice): 180 min
clotting time [7]: 8.6 min
maximum clot firmness (MCF) [7]: 60.3 [SD 0.6] mm
EC50 [8]: 22.9 nM
microsomal CLint [9]: 8.3 µL/min/mg
AUC(0-inf) [10]: 450 ng·h/mL
AUC(0-t) [10]: 444 ng·h/mL
Cmax [10]: 311 ng/mL
MRT inf [10]: 1.61 h
MRT last [10]: 1.49 h
Tmax [10]: 0.5 h
concentration at 4 h [10]: 26.1 ng/mL
half-life [10]: 1.41 h
EC50 [11]: 10.9 nM
EC50 [12]: 38.6 nM
embryo survival [13]: complete survival
TAT levels, mean ([14]; single 20 mg/kg oral dose, all mice): 18.6 ng/mL
TAT levels, mean ([14]; single 20 mg/kg oral dose, mice that died during the experiment): 29.6 ng/mL
TAT levels, mean ([14]; single 20 mg/kg oral dose, the two survivors): 2.1 ng/mL
TAT levels, mean ([14]; two 20 mg/kg oral doses): 13.7 ng/mL
EC50 [15]: 13.4 nM
protection against degradation of fibrinogen [16]: protected against the degradation of fibrinogen
EC50 [17]: 3.9 nM
Human Protein binding (%free) [18]: 66 %free
EC50 [19]: 4.7 to 38.6 nM
EC50 [20]: 4.7 nM
protection against prothrombin degradation [21]: almost full protection
EC50 [22]: 135 nM
drug level at 4 h as share of C max ([23]; 20 mg/kg oral, 4 h after dosing): 8.4%
time for drug levels to reach their peak ([23]; oral dosing): 30 min
plasma prothrombin and fibrinogen profiles ([24]; single 20 mg/kg oral dose, surviving mice): intact prothrombin and fibrinogen profiles
plasma fibrinogen ([24]; two 20 mg/kg oral doses): fibrinogen was detectable in all multiply dosed animals
plasma prothrombin ([24]; two 20 mg/kg oral doses): Prothrombin was detectable in three of the four surviving mice
